Measured values: patent publication US5510332A, “Process to inhibit binding of the integrin α4 62 1 to VCAM-1 or fibronectin and linear peptides therefor” (priority 1994, dated 1996)
Where a SMILES comes first, the peptide text is derived from it. Where no end group is shown, it is not given here.

The compounds below were run against T1, binding of α4 β1 integrin to VCAM-1 (Homo sapiens, UniProt P05556+P13612) (assay: Cell-protein assay: calcein-labelled Ramos cells binding to VCAM-mouse IgG fusion protein on magnetic beads). Conditions: less than about 100; assay format not stated.
T1 construct: endogenous in cells; host or cells: Ramos (human B-cell line) for endogenous α4β1; the VCAM-mouse IgG fusion was made in house, secreted from transfected COS cells and captured on goat anti-mouse IgG Dynal beads
Assay type: cell-based
From the text: The VCAM-1 binding assays involved assessing the ability of cells that express α4 β1 to bind cells expressing VCAM (cell-cell assay) or to bind purified VCAM protein (cell-protein assay). The integrin-expressing cell types used in these assays included the human B-cell line, Ramos, and the human promyelocytic line, HL-60. The cell-cell assay was used to compare the relative potency of peptides at a single dose. The cell-protein assay was used to generate dose response curves and determine IC50 values.
An expression vector was designed such that a region of VCAM known to bind the integrin was-expressed as a fusion protein with mouse IgG. A cDNA containing the two N-terminal domains of human VCAM was generated by the polymerase chain reaction (PCR) from a full length VCAM cDNA. Similarly, a cDNA containing the hinge, CH2 and CH3 regions of mouse IgG2A was amplified by PCR from cDNA made from total RNA isolated from the hybridoma cell line 402C10. The VCAM cDNA was ligated to the mouse IgG cDNA and cloned into a mammalian expression vector. […] The media was collected and active protein was purified by immunoprecipitation using Dynal magnetic polystyrene beads coated with goat anti-mouse IgG. Following immunoprecipitation, the beads bound Ramos cells that expressed the integrin α4 β1.
Ramos cells were fluorescently labeled with calcein AM (Molecular Probes) and resuspended in 1 ml of binding buffer (Hanks' balanced salt solution, pH 7.4, 1.0 mM CaCl2, 1.0 mM MgCl2 and 1.0 mM MnCl2). The beads (10 μl, 4×10^6 beads/ml) were placed in wells of a 96-well microtiter dish with 10 μl of peptide at various concentrations. The beads were incubated with 10 μl of labeled cells (10^7 cells/ml) for 10 min at room temperature. Following immobilization of the beads onto the plastic with a magnet, unbound cells were removed by washing three times with binding buffer. The remaining bound cells were lysed in 50 mM Tris, pH 7.4, 5.0 mM EDTA, 1.0% NP-40 and quantitated by fluorimetry using a Millipore Cytofluor 2350 fluorimeter. Dose response curves were calculated and IC50 values determined. Peptides having the amino acid residue sequences of SEQ ID NOs:8-102 were tested for their ability to inhibit the binding of α4 β1 integrin to VCAM-1.

T1 sequence (P13612 34-1032): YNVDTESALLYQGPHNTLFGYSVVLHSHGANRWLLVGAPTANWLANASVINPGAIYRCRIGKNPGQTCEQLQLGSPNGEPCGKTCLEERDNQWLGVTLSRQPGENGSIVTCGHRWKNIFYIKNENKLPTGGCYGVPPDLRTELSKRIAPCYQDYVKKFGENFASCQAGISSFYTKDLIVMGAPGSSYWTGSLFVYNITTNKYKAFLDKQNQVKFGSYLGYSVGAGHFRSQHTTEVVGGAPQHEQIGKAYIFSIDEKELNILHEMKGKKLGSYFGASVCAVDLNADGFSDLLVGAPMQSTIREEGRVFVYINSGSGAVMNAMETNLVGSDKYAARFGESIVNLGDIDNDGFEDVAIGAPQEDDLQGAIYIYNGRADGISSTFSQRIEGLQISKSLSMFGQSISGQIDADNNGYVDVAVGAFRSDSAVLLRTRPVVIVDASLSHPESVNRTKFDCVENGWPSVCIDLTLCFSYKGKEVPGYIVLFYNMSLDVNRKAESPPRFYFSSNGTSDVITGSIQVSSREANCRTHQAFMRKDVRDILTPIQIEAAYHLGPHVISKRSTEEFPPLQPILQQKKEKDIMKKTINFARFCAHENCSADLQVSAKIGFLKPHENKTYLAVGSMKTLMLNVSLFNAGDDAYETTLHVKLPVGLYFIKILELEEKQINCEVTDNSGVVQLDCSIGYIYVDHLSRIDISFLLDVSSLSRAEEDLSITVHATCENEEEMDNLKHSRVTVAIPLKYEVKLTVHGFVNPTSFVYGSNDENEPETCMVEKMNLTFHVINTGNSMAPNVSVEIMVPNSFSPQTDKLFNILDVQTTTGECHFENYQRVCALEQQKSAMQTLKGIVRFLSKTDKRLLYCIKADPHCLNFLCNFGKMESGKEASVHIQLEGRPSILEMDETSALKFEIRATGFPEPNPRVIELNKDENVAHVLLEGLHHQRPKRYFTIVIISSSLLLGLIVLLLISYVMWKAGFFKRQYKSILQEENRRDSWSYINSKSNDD
T1 sequence (P05556 21-798): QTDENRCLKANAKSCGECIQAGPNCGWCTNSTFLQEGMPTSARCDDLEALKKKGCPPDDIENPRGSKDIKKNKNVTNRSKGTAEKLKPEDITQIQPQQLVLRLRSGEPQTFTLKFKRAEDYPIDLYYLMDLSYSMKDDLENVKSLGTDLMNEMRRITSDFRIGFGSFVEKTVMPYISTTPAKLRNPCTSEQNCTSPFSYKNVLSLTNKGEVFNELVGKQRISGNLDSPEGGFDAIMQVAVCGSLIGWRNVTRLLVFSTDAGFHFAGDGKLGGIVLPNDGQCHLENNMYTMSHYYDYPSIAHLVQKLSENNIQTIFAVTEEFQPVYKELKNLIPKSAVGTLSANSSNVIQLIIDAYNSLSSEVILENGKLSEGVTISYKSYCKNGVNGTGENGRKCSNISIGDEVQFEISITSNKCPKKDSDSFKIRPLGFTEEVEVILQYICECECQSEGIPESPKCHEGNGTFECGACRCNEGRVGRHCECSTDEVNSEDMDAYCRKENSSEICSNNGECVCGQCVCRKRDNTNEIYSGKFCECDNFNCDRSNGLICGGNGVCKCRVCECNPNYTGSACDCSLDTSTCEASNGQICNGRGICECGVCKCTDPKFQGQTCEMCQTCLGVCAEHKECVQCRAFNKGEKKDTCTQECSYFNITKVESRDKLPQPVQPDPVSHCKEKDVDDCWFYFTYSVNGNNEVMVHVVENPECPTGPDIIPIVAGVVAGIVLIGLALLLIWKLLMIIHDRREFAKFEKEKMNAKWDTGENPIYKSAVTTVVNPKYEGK

| Compound | peptide concentration at which binding of α4 β1 to VCAM-1 is significantly inhibited |
| --- | --- |
| CC(=O)N[C@@H](Cc1c[nH]c2ccccc12)C(=O)N[C@@H](CC(C)C)C(=O)N[C@@H](CC(=O)O)C(=O)N[C@H](C(N)=O)C(C)C [SEQ ID NO:11, Ac-Trp-Leu-Asp-Val-amide] (Ac-WLDV-NH2) | less than 100 μM |
| EWLDV-NH2 [SEQ ID NO:13, Glu-Trp-Leu-Asp-Val-amide] | less than 100 μM |

Each compound was assayed against T2, binding of the integrin α4 β1 to VCAM (Homo sapiens, UniProt P05556+P13612) (assay: Cell-cell assay: 35S-labelled Ramos cells binding to VCAM expressing CHO cells). Conditions: single concentration at which SEQ ID NO:9 gives approximately 50% inhibition of adhesion; SEQ ID NO:9 = 1.00; >2.00 indicates little or no inhibition of VCAM-α4 β1 binding.
T2 construct: endogenous in cells; host or cells: Ramos (human B-cell line) for endogenous α4β1; CHO cells stably transfected with human VCAM cDNA for the counter-receptor
Assay type: cell-based
From the text: The VCAM-1 binding assays involved assessing the ability of cells that express α4 β1 to bind cells expressing VCAM (cell-cell assay) or to bind purified VCAM protein (cell-protein assay). The integrin-expressing cell types used in these assays included the human B-cell line, Ramos, and the human promyelocytic line, HL-60. The cell-cell assay was used to compare the relative potency of peptides at a single dose. The cell-protein assay was used to generate dose response curves and determine IC50 values. A human VCAM cDNA was amplified by the polymerase chain reaction (PCR) from cDNA reverse transcribed from RNA isolated from human umbilical vein endothelial cells. The VCAM cDNA was ligated into a mammalian expression vector and electroporated into chinese hamster ovary (CHO) cells. Cells were grown in G418 selective media and clones expressing high levels of VCAM were selected by FACS analysis. VCAM expressing CHO cells and nontransfected CHO cells were plated in 48 well cluster dishes at a density of 50,000 cells/well 24 hour prior to assay. The dishes were washed with binding buffer (DMEM, 1% BSA, 1.0 mM MnCl2, 0.02% sodium azide, pH 7.4) immediately prior to assay. […] Unbound cells were removed by washing with binding buffer and the remaining bound cells were lysed with 50 mM Tris, pH 8.0, 150 mM NaCl, 1% SDS and transferred to scintillation vials for quantitation.

T2 sequence (P13612 34-1032): as the sequence (P13612 34-1032) above
T2 sequence (P05556 21-798): as the sequence (P05556 21-798) above

| Compound | relative quantity of adhered cells in relationship to peptide SEQ ID NO:9 |
| --- | --- |
| GPRWLDVP-NH2 [SEQ ID NO:9 E→R, Gly-Pro-Arg-Trp-Leu-Asp-Val-Pro-amide] | 1.52 |
| GPEWLDKP-NH2 [SEQ ID NO:9 V→K] | 2.68 |
| GPNWLDVP-NH2 [SEQ ID NO:9 E→N, Gly-Pro-Asn-Trp-Leu-Asp-Val-Pro-amide] | 0.94 |
| GPIWLDVP-NH2 [SEQ ID NO:9 E→I, Gly-Pro-Ile-Trp-Leu-Asp-Val-Pro-amide] | 1.44 |
| GPEWLCVP-NH2 [SEQ ID NO:9 D→C, Gly-Pro-Glu-Trp-Leu-Cys-Val-Pro-amide] | 1.78 |
| GPSWLDVP-NH2 [SEQ ID NO:9 E→S, Gly-Pro-Ser-Trp-Leu-Asp-Val-Pro-amide] | 0.85 |
| GPFWLDVP-NH2 [SEQ ID NO:9 E→F, Gly-Pro-Phe-Trp-Leu-Asp-Val-Pro-amide] | 1.64 |
| GPHWLDVP-NH2 [SEQ ID NO:9 E→H, Gly-Pro-His-Trp-Leu-Asp-Val-Pro-amide] | 1.23 |
| GPEWLDYP-NH2 [SEQ ID NO:9 V→Y, Gly-Pro-Glu-Trp-Leu-Asp-Tyr-Pro-amide] | 0.80 |
| GPEWLDNP-NH2 [SEQ ID NO:9 V→N] | 2.31 |
| GPEWLFVP-NH2 [SEQ ID NO:9 D→F, Gly-Pro-GluoTrp-Leu-Phe-Val-Pro-amide] | 1.94 |
| GPEWLDWP-NH2 [SEQ ID NO:9 V→W, Gly-Pro-Glu-Trp-Leu-Asp-Trp-Pro-amide] | 1.08 |
| GPGWLDVP-NH2 [SEQ ID NO:9 E→G, Gly-Pro-Gly-Trp-Leu-Asp-Val-Pro-amide] | 1.33 |
| GPEWLHVP-NH2 [SEQ ID NO:9 D→H, Gly-Pro-Glu-Trp-Leu-His-Val-Pro-amide] | 1.74 |
| GPEWLDQP-NH2 [SEQ ID NO:9 V→Q] | 1.97 |
| GPEWLDIP-NH2 [SEQ ID NO:9 V→I] | 1.81 |
| GPEWLQVP-NH2 [SEQ ID NO:9 D→Q, Gly-Pro-Glu-Trp-Leu-Gln-Val-Pro-amide] | 2.35 |
| GPMWLDVP-NH2 [SEQ ID NO:9 E→M, Gly-Pro-Met-Trp-Leu-Asp-Val-Pro-amide] | 1.42 |
| GPEALDVP-NH2 [SEQ ID NO:9 W→A, Gly-Pro-Glu-Ala-Leu-Asp-Val-Pro-amide] | 1.64 |
| GPVWLDVP-NH2 [SEQ ID NO:9 E→V, Gly-Pro-Val-Trp-Leu-Asp-Val-Pro-amide] | 1.04 |
| GPECLDVP-NH2 [SEQ ID NO:9 W→C, Gly-Pro-Glu-Cys-Leu-Asp-Val-Pro-amide] | 1.45 |
| GPKWLDVP-NH2 [SEQ ID NO:9 E→K, Gly-Pro-Lys-Trp-Leu-Asp-Val-Pro-amide] | 1.34 |
| GPEWLDGP-NH2 [SEQ ID NO:9 V→G] | 1.67 |
| GPTWLDVP-NH2 [SEQ ID NO:9 E→T, Gly-Pro-Thr-Trp-Leu-Asp-Val-Pro-amide] | 0.98 |

| Compound | relative quantity of adhered cells in relationship to peptide SEQ ID NO:9 |
| --- | --- |
| GPEWLDFP-NH2 [SEQ ID NO:9 V→F, Gly-Pro-Glu-Trp-Leu-Asp-Phe-Pro-amide] | 1.13 |
| GPEWLDMP-NH2 [SEQ ID NO:9 V→M] | 2.46 |
| GPEWLRVP-NH2 [SEQ ID NO:9 D→R, Gly-Pro-Glu-Trp-Leu-Arg-Val-Pro-amide] | 2.14 |
| GPEWLDPP-NH2 [SEQ ID NO:9 V→P] | 2.45 |
| GPEWLDHP-NH2 [SEQ ID NO:9 V→H] | 1.77 |
| GPEWLMVP-NH2 [SEQ ID NO:9 D→M, Gly-Pro-Glu-Trp-Leu-Met-Val-Pro-amide] | 1.76 |
| GPEWLEVP-NH2 [SEQ ID NO:9 D→E, Gly-Pro-Glu-Trp-Leu-Glu-Val-Pro-amide] | 1.77 |
| GPEWLDLP-NH2 [SEQ ID NO:9 V→L] | 1.54 |
| GPPWLDVP-NH2 [SEQ ID NO:9 E→P, Gly-Pro-Pro-Trp-Leu-Asp-Val-Pro-amide] | 0.98 |
| GPWWLDVP-NH2 [SEQ ID NO:9 E→W, Gly-Pro-Trp-Trp-Leu-Asp-Val-Pro-amide] | 1.17 |
| GPLWLDVP-NH2 [SEQ ID NO:9 E→L, Gly-Pro-Leu-Trp-Leu-Asp-Val-Pro-amide] | 1.62 |
| GPAWLDVP-NH2 [SEQ ID NO:9 E→A, Gly-Pro-Ala-Trp-Leu-Asp-Val-Pro-amide] | 1.47 |
| GPCWLDVP-NH2 [SEQ ID NO:9 E→C, Gly-Pro-Cys-Trp-Leu-Asp-Val-Pro-amide] | 1.49 |
| GPEWLDEP-NH2 [SEQ ID NO:9 V→E, Gly-Pro-Glu-Trp-Leu-Asp-Glu-Pro-amide] | 2.33 |
| GPDWLDVP-NH2 [SEQ ID NO:9 E→D, Gly-Pro-Asp-Trp-Leu-Asp-Val-Pro-amide] | 1.54 |
| GPEWLDDP-NH2 [SEQ ID NO:9 V→D, Gly-Pro-Glu-Trp-Leu-Asp-Asp-Pro-amide] | 2.39 |
| GPEWLDRP-NH2 [SEQ ID NO:9 V→R] | 1.52 |
| GPEWLKVP-NH2 [SEQ ID NO:9 D→K, Gly-Pro-Glu-Trp-Leu-Lys-Val-Pro-amide] | 1.74 |
| GPQWLDVP-NH2 [SEQ ID NO:9 E→Q, Gly-ProoGln-Trp-Leu-Asp-Val-Pro-amide] | 0.93 |
| GPEDLDVP-NH2 [SEQ ID NO:9 W→D, Gly-Pro-Glu-Asp-Leu-Asp-Val-Pro-amide] | 1.62 |
| GPYWLDVP-NH2 [SEQ ID NO:9 E→Y, Gly-Pro-Tyr-Trp-Leu-Asp-Val-Pro-amide] | 0.96 |
| GPEWLPVP-NH2 [SEQ ID NO:9 D→P, Gly-Pro-Glu-Trp-Leu-Pro-Val-Pro-amide] | 2.19 |
| GPEWLDSP-NH2 [SEQ ID NO:9 V→S] | 1.54 |
